In the supplement of paper PMC4628005:

How the values were obtained:
Conditions in all cases: drug exposure time: 96 h
[1] = compound: CNC(=O)c1cc(Oc2ccc(NC(=O)Nc3ccc(Cl)c(C(F)(F)F)c3)cc2)ccn1 [Sorafenib]
Protocol: (§1)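 Breast cancer cell lines were grown in RPMI 1640 with 10% FBS on collagen I-coated 96-well plates and treated for 96 h (from 24 h after seeding) with 12 dilutions per drug, in triplicate. Growth was read by sulforhodamine B total-protein staining (absorbance 570 nm) relative to diluent control, and IC50 was calculated. The top dose was 1e-5 M for most drugs; Bortezomib went to 2e-5 M and Sirolimus and 17-AAG to 2e-6 M[…].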

[2] = compound: CS(=O)(=O)CCNCc1ccc(-c2ccc3ncnc(Nc4ccc(OCc5cccc(F)c5)c(Cl)c4)c3c2)o1 [Lapatinib]
Protocol: as §1

[3] = compound: COc1cc2ncnc(Nc3ccc(F)c(Cl)c3)c2cc1OCCCN1CCOCC1 [Gefitinib]
Protocol: as §1

[4] = compound: Nc1ncn([C@H]2C[C@H](O)[C@@H](CO)O2)c(=O)n1 [Decitabine]
Protocol: as §1

[5] = compound: N.N.[Cl][Pt][Cl] [Cisplatin]
Protocol: as §1

[6] = compound: CC/C(=C(\c1ccccc1)c1ccc(OCCN(C)C)cc1)c1ccccc1 [Tamoxifen]
Protocol: as §1

[7] = compound: COc1cc2/c(=N/c3ccc(Br)cc3F)nc[nH]c2cc1OCC1CCN(C)CC1 [Vandetanib]
Protocol: as §1

[8] = compound: C#Cc1cccc(Nc2ncnc3cc(OCCOC)c(OCCOC)cc23)c1 [Erlotinib]
Protocol: as §1

[9] = compound: O=C(/C=C/c1cccc(S(=O)(=O)Nc2ccccc2)c1)NO [Belinostat]
Protocol: as §1

[10] = compound: c1ccc2c(CCNc3ccc(Nc4ccncc4)cc3)c[nH]c2c1 [Serdemetan]
Protocol: as §1

[11] = compound: CCN(CC)CCNC(=O)c1c(C)[nH]c(/C=C2\C(=O)Nc3ccc(F)cc32)c1C [Sunitinib]
Protocol: as §1

[12] = compound: COc1ccc(C2=N[C@@H](c3ccc(Cl)cc3)[C@@H](c3ccc(Cl)cc3)N2C(=O)N2CCNC(=O)C2)c(OC(C)C)c1 [Nutlin-3]
Protocol: as §1

[13] = compound: O=C(CCCCCCC(=O)Nc1ccccc1)NO [Vorinostat]
Protocol: as §1

[14] = compound: Cn1cncc1[C@@](N)(c1ccc(Cl)cc1)c1ccc2c(c1)c(-c1cccc(Cl)c1)cc(=O)n2C [Tipifarnib]
Protocol: as §1

[15] = compound: Nc1ncn([C@@H]2O[C@H](CO)[C@@H](O)[C@H]2O)c(=O)n1 [Azacitidine]
Protocol: as §1

[16] = compound: O=C1NC(=O)[C@@H](c2cn3c4c(cccc24)CCC3)[C@@H]1c1c[nH]c2ccccc12 [ARQ197]
Protocol: as §1

[17] = compound: CC(=O)O[C@H]1C(=O)[C@@]2(C)[C@H]([C@H](OC(=O)c3ccccc3)[C@]3(O)C[C@H](OC(=O)[C@H](O)[C@@H](NC(=O)c4ccccc4)c4ccccc4)C(C)=C1C3(C)C)[C@]1(OC(C)=O)CO[C@@H]1C[C@@H]2O [Paclitaxel]
Protocol: as §1

[18] = compound: O=c1[nH]cc(F)c(=O)[nH]1 [5-Fluorouracil]
Protocol: as §1

[19] = compound: O=C1c2c(O)ccc(O)c2C(=O)c2c(NCCNCCO)ccc(NCCNCCO)c21 [Mitoxantrone]
Protocol: as §1

[20] = compound: Cc1nc(Nc2ncc(C(=O)Nc3c(C)cccc3Cl)s2)cc(N2CCN(CCO)CC2)n1 [Dasatinib]
Protocol: as §1

[21] = compound: CN(Cc1cnc2nc(N)nc(N)c2n1)c1ccc(C(=O)N[C@@H](CCC(=O)O)C(=O)O)cc1 [Methotrexate]
Protocol: as §1

[22] = compound: Cc1[nH]c2ccccc2c1CCNCc1ccc(/C=C/C(=O)NO)cc1 [Panobinostat]
Protocol: as §1

[23] = compound: Cn1cc(CNCC2CCN(c3ncc(C(=O)NO)cn3)CC2)c2ccccc21 [Quisinostat]
Protocol: as §1

[24] = compound: COc1cccc2c1C(=O)c1c(O)c3c(c(O)c1C2=O)C[C@@](O)(C(=O)CO)C[C@@H]3O[C@H]1C[C@H](N)[C@H](O)[C@H](C)O1 [Doxorubicin]
Protocol: as §1

[25] = compound: Cc1cc2c(F)c(Oc3ncnn4cc(OC[C@@H](C)O)c(C)c34)ccc2[nH]1 [Brivanib]
Protocol: as §1

[26] = compound: CC(C)(C)C[C@H]1N[C@@H](C(=O)NCC[C@H](O)CO)[C@H](c2cccc(Cl)c2)[C@@]12C(=O)Nc1cc(Cl)c(F)cc12 [MI-219]
Protocol: as §1

[27] = compound: CC(=O)O[C@@]12CO[C@@H]1C[C@H](O)[C@@]1(C)C(=O)[C@H](O)C3=C(C)[C@@H](OC(=O)[C@H](O)[C@@H](NC(=O)OC(C)(C)C)c4ccccc4)C[C@@](O)([C@@H](OC(=O)c4ccccc4)[C@H]21)C3(C)C [Docetaxel]
Protocol: as §1

[28] = compound: C=CCNC1=C2C[C@@H](C)C[C@H](OC)[C@H](O)[C@@H](C)/C=C(\C)[C@H](OC(N)=O)[C@@H](OC)/C=C\C=C(/C)C(=O)NC(=CC1=O)C2=O [17-AAG]
Protocol: (§2)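 Same SRB 96 h IC50 screen on breast cancer cell lines (RPMI 1640 + 10% FBS, collagen I-coated 96-well plates, triplicates, 12 dilutions), for drugs with a different dose range: Bortezomib up to 2e-5 M; Sirolimus and 17-AAG up to 2e-6 M. Sirolimus values at the 2e-6 M top dose are censored.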

[29] = compound: CO[C@H]1C[C@@H]2CC[C@@H](C)[C@@](O)(O2)C(=O)C(=O)N2CCCC[C@H]2C(=O)O[C@H]([C@H](C)C[C@@H]2CC[C@@H](O)[C@H](OC)C2)CC(=O)[C@H](C)/C=C(\C)[C@@H](O)[C@@H](OC)C(=O)[C@H](C)C[C@H](C)/C=C/C=C/C=C/1C [Sirolimus]
Protocol: as §2

[30] = compound: CC(C)C[C@H](NC(=O)[C@H](Cc1ccccc1)NC(=O)c1cnccn1)B(O)O [Bortezomib]
Protocol: as §2

Test System	IC50 (SRB growth assay) [1] [nM]	IC50 (SRB growth assay) [2] [nM]	IC50 (SRB growth assay) [3] [nM]	IC50 (SRB growth assay) [4] [nM]	IC50 (SRB growth assay) [5] [nM]	IC50 (SRB growth assay) [6] [nM]	IC50 (SRB growth assay) [7] [nM]	IC50 (SRB growth assay) [8] [nM]	IC50 (SRB growth assay) [9] [nM]	IC50 (SRB growth assay) [10] [nM]	IC50 (SRB growth assay) [11] [nM]	IC50 (SRB growth assay) [12] [nM]	IC50 (SRB growth assay) [13] [nM]	IC50 (SRB growth assay) [14] [nM]	IC50 (SRB growth assay) [15] [nM]	IC50 (SRB growth assay) [16] [nM]	IC50 (SRB growth assay) [17] [nM]	IC50 (SRB growth assay) [18] [nM]	IC50 (SRB growth assay) [19] [nM]	IC50 (SRB growth assay) [20] [nM]	IC50 (SRB growth assay) [21] [nM]	IC50 (SRB growth assay) [22] [nM]	IC50 (SRB growth assay) [23] [nM]	IC50 (SRB growth assay) [24] [nM]	IC50 (SRB growth assay) [25] [nM]	IC50 (SRB growth assay) [26] [nM]	IC50 (SRB growth assay) [27] [nM]	IC50 (SRB growth assay) [28] [nM]	IC50 (SRB growth assay) [29] [nM]	IC50 (SRB growth assay) [30] [nM]
HCC 1500	6090	529	679	6210	> 10000	> 10000	1280	617	367	1960	8230	2670	987	1050	2330	197	3.44	3930	30.6	959	> 10000	12.8	9.34	40.3	> 10000	1070	0.745	905	0.274	5.55
HCC 1569	4350	857	7430	> 10000	> 10000	5680	2070	3240	521	1800	6490	> 10000	1070	938	2620	619	66.2	8210	31.4	381	> 10000	14.4	7.46	42.1	> 10000	> 10000	7.63	90	0.355	5.08
HCC 1806	5250	589	513	1190	> 10000	5990	580	327	216	826	4990	> 10000	632	263	> 10000	501	1.97	5080	20.1	178	2.99	15.8	8.95	20.8	> 10000	> 10000	0.597	53.6	> 2000	5.96
